{
  "source": "patent US9738614B2",
  "about": "“Malignant and non-malignant disease treatment with Ras antagonists” (PISCES THERAPEUTICS, LLC, priority 2011, dated 2017)",
  "assay_type_in_all_cases": "cell-based",
  "key": {"[1]": {"system": "U87MG cells", "assay": "Cell proliferation assay for U87MG cells", "procedure": "(§1) The adult glioblastoma cell line U87MG was obtained from a commercial source (ATCC). The pancreatic cancer cell line PANC-1 was obtained from a local laboratory (Indiana University). Both lines were grown in Iscove's Modified Dulbecco's Medium with 10% fetal bovine serum (FBS) at 37° C. and 5% CO2.\n(§2) Compounds (1), (2), (3), (4), and (5), which are shown and described above, were each dissolved in ethanol at 10 mg/mL. A measured portion of the solution was pipetted into a microcentrifuge tube. Then, the ethanol was evaporated from each tube using a SpeedVac®, leaving just the compound in the tube. The appropriate amount of chloroform was added to the tube to produce a 0.1 M concentration. The solutions were placed on ice and in the dark so they could be pipetted into 10- and 20-μL aliquots in 1.5 mL microcentrifuge tubes. The solutions were frozen at […] with lids closed tightly and the tubes covered with foil.\n(§3) Prior to treating the cells, a tube of the test compound was removed from the freezer and placed under a biosafety hood to evaporate the chloroform in the tubes. Then, dimethyl sulfoxide (DMSO) was added to the tubes to make the correct concentration to use in the experiment (0.1 M stock). The tubes were vortexed, and warm media with 10% FBS was slowly added to make the correct working concentrations to be used in the experiment. The compounds were directly added to each well for treatment.\n(§4) U87MG cells were seeded in a 24-well plate, 5000 cells per well, and incubated overnight at 37° C. in serum-free media. The next day they were treated in triplicate with 50 and 100 μM of each test compound (1), (2), (3), (4), and (5) and the reference compound FTS. After five days, the cells were trypsinized (0.5%), stained with trypan blue, and counted to determine the cell number per well. The half-maximal inhibitory concentration (IC50) values were calculated using Multiplex Reader-Fit software made by MiraiBio Group, Hitachi Solutions America, Ltd. In a typical experiment, the control wells averaged 138,000 cells. The results are presented graphically in FIG. 1. The test compounds at 50 μM allowed the following U87MG cell proliferation compared to control: compound (1)—37%, compound (2)—18%, compound (3)—10%, compound (4)—40%, and compound (5)—0%. The reference compound FTS at 50 μM allowed 7% cell proliferation compared to control.\nTo further evaluate compounds (3) and (5), which inhibited the most cell growth in FIG. 1, more U87MG cells were seeded in 24-well plates, 5000 cells per well, and incubated overnight at 37° C. in serum-free media. The cells were treated the next morning in media with 5% serum in triplicate with standard concentrations of 6.25, 12.5, 25, and 50 μM of each test compound (3) and (5) and the reference compound FTS. After five days of treatment, the cells were trypsinized (0.5%) and then stained with trypan blue. Cells were counted to determine the number of cells per well. Again, the IC50 values were calculated using Multiplex Reader-Fit software made by MiraiBio Group, Hitachi Solutions America, Ltd. In a typical experiment, the control wells averaged 56,000 cells. The results are presented graphically in FIG. 2. The test compounds at 25 μM allowed the following U87MG cell proliferation compared to control: compound (3)—69% and compound (5)—0%. The reference compound FTS at 25 μM allowed over 50% cell proliferation compared to control.\nSince the doses of compound (5) used above killed all of the cells, the dose curve was set up again using even lower doses of compound (5). U87MG cells were seeded in 24-well plates, 5000 cells per well, and incubated overnight at 37° C. in serum-free media. The cells were treated in triplicate with 6.25, 12.5, 25, and 50 μM of the reference compound FTS and 0.3125, 0.625, 1.25, 2.5, and 5.0 μM of the test compound (5) in media with 5% serum for five days. Then, the cells were trypsinized (0.5%) and stained with trypan blue, and the cell number per each well was determined. […]"}, "[2]": {"system": "PANC-1 cells", "assay": "Cell proliferation assay for PANC-1 cells", "conditions": "1.25 μM, media with 5% serum, five days (FIG. 3)", "procedure": "as §1, §2, §3\nThe cells were treated in triplicate with standard concentrations of 6.25, 12.5, 25, 50, and 100 μM of each test compound (3) and (5) and the reference compound FTS and, when needed, concentrations of 0.625, 1.25, 2.5 and 5.0 μM in media with 5% serum for five days. Then, the cells were stained with trypan blue, and the cell number per each well was determined. Again, the IC50 values were calculated using Multiplex Reader-Fit software made by MiraiBio Group, Hitachi Solutions America, Ltd. In a typical experiment, the control wells averaged 32,500 cells. The results are presented graphically in FIG. 3. […]"}, "[3]": {"system": "NF-1+/- mast cells", "assay": "NF-1+/- mast cell proliferation (3H-thymidine incorporation)", "conditions": "0-12.5 μM, 24 hours after SCF stimulation (FIG. 4B)", "procedure": "Purified populations of NF-1+/−mast cells were stimulated with a maximum stimulating concentration of stem cell factor (SCF) in the presence of a control or compound (5) at concentrations of 10-15 μM. The activated, GTP-bound form of Ras (Ras-GTP) was measured 3 minutes subsequently using Western blot analysis. […] In parallel experiments, mast cell proliferation was measured using 3H-thymidine incorporation 24 hours after SCF stimulation in the presence of a control or compound (5) at concentrations of 0-12.5 μM. […] Each asterisk in FIG. 4B represents a statistical difference relative to the control using analysis of variance. (Yang, Feng-Chun, et. al. J Clin Invest 2003, 112(12), 1851-1861; Yang, Feng-Chun, et. al. Hum Mol Genet 2006, 15(11), 1921-1930)."}, "[4]": {"system": "GBM6 cells", "assay": "IC50 assay with GBM6 glioblastoma cells", "conditions": "Homo sapiens, 1 to 5 μM, read-out: half-maximal effect on cell viability", "procedure": "as §4\nAn IC50 assay similar to Example 6 above was performed with GBM6 cells prepared from minced, freshly harvested tumor tissue. GBM6 cells were grown in the presence of compound (5) at concentrations ranging from 1 to 5 μM."}, "[5]": {"system": "JW19 cells", "assay": "IC50 assay with JW19 mouse MPNST cells", "conditions": "0.5 to 20 μM, read-out: half-maximal effect on viability", "procedure": "as §4\nMouse models of NF-1 related MPNST have been made. Cells from two such mice, JW16 and JW19, have been isolated and propagated. The JW16 and JW19 cells were subjected to IC50 assays similar to Example 6 above."}, "[6]": {"system": "USPC1 cells", "assay": "IC50 assay with USPC1 endometrial cancer cells", "conditions": "1 to 50 μM, read-out: half-maximal inhibition of viability", "procedure": "as §4\nECC1 (well differentiated) and USPC1 (poorly differentiated) endometrial cancer cells were subjected to IC50 assays similar to Example 6 above. The cells were grown in concentrations of compound (5) ranging from 1 to 50 μM."}},
  "note": "pIC50: −log10 of the molar value.",
  "data": [
    {"compound": "CC(C)=CCC/C(C)=C/CC/C(C)=C/CSc1ccccc1C1=NCCN1", "note": "[compound (5), 2-(2-{[(2E,6E)-3,7,11-trimethyldodeca-2,6,10-trien-1-yl]sulfanyl}phenyl)-4,5-dihydro-1H-imidazole]", "values": [
      {"measurement": "U87MG cell proliferation compared to control", "setting": "[1]; 2.5 μM, media with 5% serum, five days (FIG. 2)", "value": 56, "unit": "%"},
      {"measurement": "U87MG cell proliferation compared to control", "setting": "[1]; 25 μM, media with 5% serum, five days (FIG. 2)", "value": 0, "unit": "%"},
      {"measurement": "U87MG cell proliferation compared to control", "setting": "[1]; 50 μM, five days, trypan blue cell count (FIG. 1)", "value": 0, "unit": "%"},
      {"measurement": "pIC50", "setting": "[1]; Homo sapiens, U-87 MG, value quoted in Example 7, read-out: IC50 as determined on the U87MG cells", "value": 5.60},
      {"measurement": "PANC-1 cell proliferation compared to control", "setting": "[2]", "value": 56, "unit": "%"},
      {"measurement": "mast cell proliferation relative to the control", "setting": "[3]", "value": "reduced"},
      {"measurement": "pIC50", "setting": "[4]", "value": 5.46},
      {"measurement": "pIC50", "setting": "[5]", "value": 5.40},
      {"measurement": "pIC50", "setting": "[6]", "value": 5.70}
    ]}
  ]
}
